Experimental findings from the supplement of paper PMC10307832 are described below.

Common to all, as to experiment: relative viability (nuclei count vs DMSO), 5 days (fraction); higher = more cells survive
Compound in experiment [1]: Cc1nc(Nc2ncc(C(=O)Nc3c(C)cccc3Cl)s2)cc(N2CCN(CCO)CC2)n1 [Dasatinib]
In outline:
(§1)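 Acceptance criteria were a control CV below 25% and at least one doubling per plate. Lung cancer cell lines in 1536-well plates got five library-drug doses (not always all listed) √10 apart by pinning and were left 5 days with no medium change. Viability divides treated-well nuclei by vehicle-well nuclei and is the median across plates. Nuclei were counted by MetaXpress from 4× Hoechst images.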

Compound in experiment [2]: C1CC1C(=O)NC2=NNC3=C2C=CC(=C3)C4=CC(=CC=C4)C(=O)NC5CC5 [XMD13-2]
In outline:
as §1

Compound in experiment [3]: Cc1ccc(C(=O)Nc2cccc(C(F)(F)F)c2)cc1Nc1cncc(C(N)=O)c1 [ALW-II-49-7]
The method, boiled down:
as §1

EKVX: the relative viability in experiment [1] (0.005 µM) amounted to 0.932; in experiment [1] (0.01581 µM), 0.879; in experiment [1] (0.05 µM), 0.807; in experiment [1] (0.075 µM, anchor plate), 0.605; in experiment [1] (0.1581 µM) it was 0.68; in experiment [1] (0.5 µM) it was 0.176. Moreover, the relative viability in experiment [2] (0.05 µM) amounted to 1.08; in experiment [2] (0.1581 µM), 0.915; in experiment [2] (0.5 µM), 0.969; in experiment [2] (1.581 µM), 0.923; in experiment [2] (5 µM) it was 1.07; in experiment [3] (0.08 µM) it was 1.06. The relative viability in experiment [3] (0.253 µM) turned out to be 0.953; in experiment [3] (0.8 µM), 0.968; in experiment [3] (2.53 µM), 0.91; in experiment [3] (8 µM), 0.974.

Turning to NCI-H2009, the relative viability in experiment [1] (0.005 µM) is 1.07; in experiment [1] (0.01581 µM), 0.988; in experiment [1] (0.05 µM) it was 0.929; in experiment [1] (0.075 µM, anchor plate) it was 0.303; in experiment [1] (0.1581 µM), 0.456; in experiment [1] (0.5 µM), 0.236. Further, the relative viability in experiment [2] (0.05 µM) turned out to be 0.989; in experiment [2] (0.1581 µM), 1.13; in experiment [2] (0.5 µM), 1.22; in experiment [2] (1.581 µM), 1.04; in experiment [2] (5 µM), 1.07; in experiment [3] (0.08 µM), 0.967. The relative viability in experiment [3] (0.253 µM) is 1.04; in experiment [3] (0.8 µM), 0.93; in experiment [3] (2.53 µM), 0.844; in experiment [3] (8 µM), 0.709.

Take NCI-H838: the relative viability was determined as 0.87 in experiment [1] (0.005 µM); 0.676 in experiment [1] (0.01581 µM); 0.532 in experiment [1] (0.05 µM); 0.307 in experiment [1] (0.075 µM, anchor plate); 0.38 in experiment [1] (0.1581 µM); 0.289 in experiment [1] (0.5 µM). The relative viability came to 1.11 in experiment [2] (0.05 µM); 0.962 in experiment [2] (0.1581 µM); 1.01 in experiment [2] (0.5 µM); 0.998 in experiment [2] (1.581 µM); 1.07 in experiment [2] (5 µM); 0.945 in experiment [3] (0.08 µM). Besides, the relative viability in experiment [3] (0.253 µM) is 0.901; in experiment [3] (0.8 µM), 0.903; in experiment [3] (2.53 µM), 0.982; in experiment [3] (8 µM), 0.918.

As to NCI-H2085, the relative viability worked out at 0.981 in experiment [1] (0.005 µM); 0.904 in experiment [1] (0.01581 µM); 0.804 in experiment [1] (0.05 µM); 0.255 in experiment [1] (0.075 µM, anchor plate); 0.356 in experiment [1] (0.1581 µM); 0.218 in experiment [1] (0.5 µM). Moreover, the relative viability in experiment [2] (0.05 µM) was determined as 1.06; in experiment [2] (0.1581 µM), 0.981; in experiment [2] (0.5 µM), 1.04; in experiment [2] (1.581 µM), 0.871; in experiment [2] (5 µM) it was 1.06; in experiment [3] (0.08 µM) it was 1.01. Moreover, the relative viability came to 1.05 in experiment [3] (0.253 µM), 0.985 in experiment [3] (0.8 µM), 1.03 in experiment [3] (2.53 µM) and 0.995 in experiment [3] (8 µM).
